Laboratory results reported in ChEMBL document CHEMBL1143511, “Antitubercular agents. Part 1: synthesis of phthalimido- and naphthalimido-linked phenazines as new prototype antitubercular agents” (2005).
Converted amounts (≈) assume the structure as drawn.

How the values were obtained:
Type in all cases: functional
[1] = tested on: Mycobacterium tuberculosis; experiment: Minimum inhibitory concentration tested against Mycobacterium tuberculosis sensitive clinical isolates
[2] = tested on: Mycobacterium tuberculosis; experiment: Minimum inhibitory concentration tested against Mycobacterium tuberculosis H37Rv ATCC 27294
[3] = tested on: Mycobacterium intracellulare; experiment: Minimum inhibitory concentration tested against Mycobacterium intracellular ATCC 13950
Mycobacterium avium = experiment: Minimum inhibitory concentration tested against Mycobacterium avium ATCC 49601
[4] = tested on: Mycobacterium tuberculosis; experiment: Minimum inhibitory concentration tested against Mycobacterium tuberculosis sensitive clinical isolates; Range:1-2 ug/ml
[5] = tested on: Mycobacterium tuberculosis; experiment: Minimum inhibitory concentration tested against Mycobacterium tuberculosis sensitive clinical isolates; Range 8-16 ug/mL
[6] = tested on: Mycobacterium tuberculosis; experiment: Minimum inhibitory concentration tested against Mycobacterium tuberculosis sensitive clinical isolates; Range 0.125-0.25 ug/ml
[7] = tested on: Mycobacterium tuberculosis; experiment: Minimum inhibitory concentration tested against Mycobacterium tuberculosis sensitive clinical isolates; Range:1-4 ug/ml

SMILES	MIC [1] [µg/mL]	MIC [2] [µg/mL]	MIC [3] [µg/mL]	MIC (Mycobacterium avium) [µg/mL]	MIC [4] [µg/mL]	MIC [5] [µg/mL]	MIC [6] [µg/mL]	MIC [7] [µg/mL]
O=C1c2cccc3cccc(c23)C(=O)N1CCCCCN1CCN(CC/N=c2/cc3n(-c4ccc(Cl)cc4)c4ccccc4nc-3cc2Nc2ccc(Cl)cc2)CC1	> 16	> 16	> 16	> 16				
O=C1c2cccc3cccc(c23)C(=O)N1CCCCN1CCN(CC/N=c2/cc3n(-c4ccc(Cl)cc4)c4ccccc4nc-3cc2Nc2ccc(Cl)cc2)CC1	> 16	> 16	> 16	> 16				
O=C1c2ccccc2C(=O)N1CCCCN1CCN(CC/N=c2/cc3n(-c4ccc(Cl)cc4)c4ccccc4nc-3cc2Nc2ccc(Cl)cc2)CC1	> 16	> 16	> 16	> 16				
O=C1c2ccccc2C(=O)N1CCCCCCN1CCN(CC/N=c2/cc3n(-c4ccc(Cl)cc4)c4ccccc4nc-3cc2Nc2ccc(Cl)cc2)CC1		1 (≈ 1.29 µM)	8 (≈ 10.4 µM)	16 (≈ 20.7 µM)	2 (≈ 2.59 µM)			
O=C1c2cccc3cccc(c23)C(=O)N1CCCCCCN1CCN(CC/N=c2/cc3n(-c4ccc(Cl)cc4)c4ccccc4nc-3cc2Nc2ccc(Cl)cc2)CC1		16 (≈ 19.4 µM)	> 16	> 16		16 (≈ 19.4 µM)		
O=C1c2ccccc2C(=O)N1CCCN1CCN(CC/N=c2/cc3n(-c4ccc(Cl)cc4)c4ccccc4nc-3cc2Nc2ccc(Cl)cc2)CC1	> 16	> 16	> 16	> 16				
NNC(=O)c1ccncc1 [ISONIAZID]		0.25 (≈ 1.82 µM)	8 (≈ 58.3 µM)	> 16			0.25 (≈ 1.82 µM)	
O=C1c2ccccc2C(=O)N1CCCCCN1CCN(CC/N=c2/cc3n(-c4ccc(Cl)cc4)c4ccccc4nc-3cc2Nc2ccc(Cl)cc2)CC1		1 (≈ 1.32 µM)	8 (≈ 10.5 µM)	16 (≈ 21.1 µM)				4 (≈ 5.27 µM)
O=C1c2cccc3cccc(c23)C(=O)N1CCCN1CCN(CC/N=c2/cc3n(-c4ccc(Cl)cc4)c4ccccc4nc-3cc2Nc2ccc(Cl)cc2)CC1	> 16	> 16	> 16	> 16				
